Laboratory results published in patent US7122173B2, “Agent for the treatment of bladder irritative symptoms accompanied by benign prostatic hyperplasia” (Kyowa Hakko Kogyo Co., Ltd., priority 2001, dated 2006).

Test system: slowly-inactivating A-type K^+ channel
Experiment: Voltage clamp, slowly-inactivating A-type K+ currents (HP −90 mV) in unidentified DRG neurons
Type: cell-based, rat
Conditions: for K+ current HP: −90 mV (slowly-inactivating A-type), relative value (before drug = 1): unidentified DRG neurons
Protocol: Experiments were performed on adult female Sprague Dawley rats. First and second series of the experiments were performed, respectively, in unidentified DRG neurons and a specific population of DRG neurons innervating the urinary bladder. The population of DRG neurons that innervate the urinary bladder were labeled by retrograde axonal transport of the fluorescent dye, Fast Blue (4% w/v) (Polyloy, Gross Umstadt, Germany), injected into the wall of the bladder in halothane-anesthetized animals 7 days before the dissociation. The dye was injected with a 28 gauge needle at three to six sites on the dorsal surface of the organ (5–6 μL per site, total volume of 20–30 μL). Each injection site was washed with saline to minimize contamination of adjacent organs with the dye.
Freshly dissociated neurons from DRG were prepared from halothane-anesthetized animals. L6 and S1 DRG were dissected from animals and then dissociated in a shaking bath for 25 minutes at 35° C. with 5 mL DMEM (Sigma) containing 0.3 mg/mL trypsin (Type 3, Sigma), 1 mg/mL collagenase (Type 1, Sigma), and 0.1 mg/mL deoxyribonuclease (Type 4, Sigma). Trypsin inhibitor (Type 2a, Sigma) was then added thereto to neutralize the activity of trypsin. Individual DRG cell bodies were isolated by trituration and then plated on a poly-L-lysine-coated 35 mm Petri dishes.
Dye-labeled primary afferent neurons that innervate the urinary bladder were identified using an inverted phase-contrast microscope (Nikon, Tokyo, Japan) with fluorescent attachments (UV-1A filter; excitation wavelength, 365 nm). Gigaohm-seal whole-cell recordings were performed at room temperature (20–22° C.) on each labeled neuron in a culture dish that usually contained three to seven labeled cells among a few hundred unlabeled neurons. The internal solution contained (in mmol/L): KCl 140, CaCl2 1, MgCl2 2, EGTA 11, HEPES 10, Mg-ATP 2, and Tris-GTP 0.4 adjusted to pH 7.4 with KOH. Patch electrodes had resistances of 1–4 M Ω when filled with the internal solution. Neurons were superfused at a flow rate of 1.5 mL/minutes with an external solution containing (in mmol/L): NaCl 150, KCl 5, CaCl2 2.5, MgCl2 1, HEPES 10, and D-glucose 10, adjusted to pH 7.4 with NaOH. All recordings were made with an Axopatch-1D patch-clamp amplifier (Axon Instruments, Foster City, Calif.), and data were acquired and analyzed by PCLAMP software (Axon Instruments).
In voltage-clamp recordings, outward K^+ currents and inward Na^+ currents were measured. For the isolation of K^+ currents, the external solution was changed to one containing (in mmol/L): choline-Cl 150, KOH 5, CaCl2 0.03, HEPES 10, Mg(OH)2 3, and D-glucose 10, adjusted to pH 7.4 with HCl.
In first series of experiments using unidentified DRG neurons, outward K^+ currents were evoked by voltage steps to +60 mV, 800 ms long from a holding potentials of −90 mV, this was followed by a 1-second conditioning pre-pulse to −20 mV followed by a second pulse to +60 mV, identical to the first in the sequence. In the second series of experiments using Fast Blue-labeled bladder afferent neurons, slowly-inactivating A-type K^+ currents were isolated by subtraction of outward K^+ currents activated from a holding potential of −40 mV (on the condition of inactivation of the majority of slowly-inactivating A-type K^+ currents) from those activated from a holding potential of −120 mV (on the condition of full activation of slowly-inactivating A-type K^+ currents). A compound was added cumulatively, starting with a lower concentration. Currents were measured at the maximum (peak) and normalized to control (before addition of the compound).
The currents at a holding potential (HP) of −90 mV are results of the measurement of slowly-inactivating A-type K^+ currents, and the currents at an HP value of −20 mV are results of the measurement of delayed rectifier K^+ currents. […]

## C[C@](O)(C(=O)Nc1cccc2c1C(=O)c1sccc1CS2(=O)=O)C(F)(F)F [Compound 1, (S)-(+)-N-(5,5-dioxido-10-oxo-4,10-dihydrothieno[3,2-c][1]benzothiepin-9-yl)-3,3,3-trifluoro-2-hydroxy-2-methylpropanamide]
Compound 1 1.0 × 10^−5 mol/L, in the presence of 5 μmol/L verapamil
  K+ current HP: −90 mV, relative value (before drug = 1): 0.99 ± 0.02
Compound 1 1.0 × 10^−5 mol/L, in the presence of 20 mmol/L tetraethylammonium
  K+ current HP: −90 mV, relative value (before drug = 1): 1.19 ± 0.01
Compound 1 1.0 × 10^−5 mol/L
  K+ current HP: −90 mV (slowly-inactivating A-type), relative value (before drug = 1): 0.96 ± 0.05
Compound 1 1.0 × 10^−6 mol/L, in the presence of 5 μmol/L verapamil
  K+ current HP: −90 mV, relative value (before drug = 1): 1.11 ± 0.03
Compound 1 1.0 × 10^−6 mol/L, in the presence of 20 mmol/L tetraethylammonium
  K+ current HP: −90 mV, relative value (before drug = 1): 1.19 ± 0.05
Compound 1 1.0 × 10^−6 mol/L
  K+ current HP: −90 mV (slowly-inactivating A-type), relative value (before drug = 1): 1.06 ± 0.02
Compound 1 1.0 × 10^−7 mol/L, in the presence of 5 μmol/L verapamil
  K+ current HP: −90 mV, relative value (before drug = 1): 1.13 ± 0.02
Compound 1 1.0 × 10^−7 mol/L, in the presence of 20 mmol/L tetraethylammonium
  K+ current HP: −90 mV, relative value (before drug = 1): 1.10 ± 0.01
Compound 1 1.0 × 10^−7 mol/L
  K+ current HP: −90 mV (slowly-inactivating A-type), relative value (before drug = 1): 1.12 ± 0.03
Compound 1 1.0 × 10^−8 mol/L
  K+ current HP: −90 mV (slowly-inactivating A-type), relative value (before drug = 1): 0.99 ± 0.08
Compound 1 2.5 × 10^−8 mol/L
  K+ current HP: −90 mV (slowly-inactivating A-type), relative value (before drug = 1): 1.07 ± 0.03
Compound 1 5.0 × 10^−4 mol/L, in the presence of 5 μmol/L verapamil
  K+ current HP: −90 mV, relative value (before drug = 1): 0.61 ± 0.05
Compound 1 5.0 × 10^−4 mol/L, in the presence of 20 mmol/L tetraethylammonium
  K+ current HP: −90 mV, relative value (before drug = 1): 0.29 ± 0.02
Compound 1 5.0 × 10^−4 mol/L, in the presence of 60 mmol/L tetraethylammonium
  K+ current HP: −90 mV, relative value (before drug = 1): 0.56 ± 0.05
Compound 1 5.0 × 10^−5 mol/L, in the presence of 5 μmol/L verapamil
  K+ current HP: −90 mV, relative value (before drug = 1): 0.94 ± 0.02
Compound 1 5.0 × 10^−5 mol/L, in the presence of 20 mmol/L tetraethylammonium
  K+ current HP: −90 mV, relative value (before drug = 1): 0.91 ± 0.04
Compound 1 5.0 × 10^−5 mol/L, in the presence of 60 mmol/L tetraethylammonium
  K+ current HP: −90 mV, relative value (before drug = 1): 1.15 ± 0.08
Compound 1 5.0 × 10^−5 mol/L
  K+ current HP: −90 mV (slowly-inactivating A-type), relative value (before drug = 1): 0.83 ± 0.09
Compound 1 5.0 × 10^−6 mol/L, in the presence of 5 μmol/L verapamil
  K+ current HP: −90 mV, relative value (before drug = 1): 1.02 ± 0.03
Compound 1 5.0 × 10^−6 mol/L, in the presence of 20 mmol/L tetraethylammonium
  K+ current HP: −90 mV, relative value (before drug = 1): 1.16 ± 0.03
Compound 1 5.0 × 10^−6 mol/L, in the presence of 60 mmol/L tetraethylammonium
  K+ current HP: −90 mV, relative value (before drug = 1): 1.14 ± 0.05
Compound 1 5.0 × 10^−7 mol/L, in the presence of 5 μmol/L verapamil
  K+ current HP: −90 mV, relative value (before drug = 1): 1.17 ± 0.03
Compound 1 5.0 × 10^−7 mol/L, in the presence of 20 mmol/L tetraethylammonium
  K+ current HP: −90 mV, relative value (before drug = 1): 1.15 ± 0.04
Compound 1 5.0 × 10^−7 mol/L, in the presence of 60 mmol/L tetraethylammonium
  K+ current HP: −90 mV, relative value (before drug = 1): 1.11 ± 0.03
Compound 1 5.0 × 10^−7 mol/L
  K+ current HP: −90 mV (slowly-inactivating A-type), relative value (before drug = 1): 1.15 ± 0.03
Compound 1 5.0 × 10^−8 mol/L, in the presence of 5 μmol/L verapamil
  K+ current HP: −90 mV, relative value (before drug = 1): 1.03 ± 0.02
Compound 1 5.0 × 10^−8 mol/L, in the presence of 20 mmol/L tetraethylammonium
  K+ current HP: −90 mV, relative value (before drug = 1): 1.08 ± 0.02
Compound 1 5.0 × 10^−8 mol/L, in the presence of 60 mmol/L tetraethylammonium
  K+ current HP: −90 mV, relative value (before drug = 1): 1.08 ± 0.02
Compound 1 5.0 × 10^−8 mol/L
  K+ current HP: −90 mV (slowly-inactivating A-type), relative value (before drug = 1): 1.07 ± 0.02
Compound 1 5.0 × 10^−9 mol/L, in the presence of 20 mmol/L tetraethylammonium
  K+ current HP: −90 mV, relative value (before drug = 1): 1.02 ± 0.02
Compound 1 5.0 × 10^−9 mol/L
  K+ current HP: −90 mV (slowly-inactivating A-type), relative value (before drug = 1): 1.01 ± 0.03
Unidentified DRG cells, HP −90 mV
  Peak compound concentration for increase of slowly-inactivating A-type K^+ currents: 1e-07 to 5e-07 mol/L
